Measured values published in ChEMBL document CHEMBL1132232, “7alpha-Iodo and 7alpha-fluoro steroids as androgen receptor-mediated imaging agents” (J Med Chem, 1999).

What was measured:
[1] = system: Rattus norvegicus; test: Distribution of tissue Radioactivity following Intravenous injection into castrated male rat and 5-alpha-DHT was reported; format: ADME, organism-based; settings: in vivo
[2] = target: T1, Androgen receptor (Homo sapiens) (UniProt P10275); settings: CV-1
T1 sequence (whole entry): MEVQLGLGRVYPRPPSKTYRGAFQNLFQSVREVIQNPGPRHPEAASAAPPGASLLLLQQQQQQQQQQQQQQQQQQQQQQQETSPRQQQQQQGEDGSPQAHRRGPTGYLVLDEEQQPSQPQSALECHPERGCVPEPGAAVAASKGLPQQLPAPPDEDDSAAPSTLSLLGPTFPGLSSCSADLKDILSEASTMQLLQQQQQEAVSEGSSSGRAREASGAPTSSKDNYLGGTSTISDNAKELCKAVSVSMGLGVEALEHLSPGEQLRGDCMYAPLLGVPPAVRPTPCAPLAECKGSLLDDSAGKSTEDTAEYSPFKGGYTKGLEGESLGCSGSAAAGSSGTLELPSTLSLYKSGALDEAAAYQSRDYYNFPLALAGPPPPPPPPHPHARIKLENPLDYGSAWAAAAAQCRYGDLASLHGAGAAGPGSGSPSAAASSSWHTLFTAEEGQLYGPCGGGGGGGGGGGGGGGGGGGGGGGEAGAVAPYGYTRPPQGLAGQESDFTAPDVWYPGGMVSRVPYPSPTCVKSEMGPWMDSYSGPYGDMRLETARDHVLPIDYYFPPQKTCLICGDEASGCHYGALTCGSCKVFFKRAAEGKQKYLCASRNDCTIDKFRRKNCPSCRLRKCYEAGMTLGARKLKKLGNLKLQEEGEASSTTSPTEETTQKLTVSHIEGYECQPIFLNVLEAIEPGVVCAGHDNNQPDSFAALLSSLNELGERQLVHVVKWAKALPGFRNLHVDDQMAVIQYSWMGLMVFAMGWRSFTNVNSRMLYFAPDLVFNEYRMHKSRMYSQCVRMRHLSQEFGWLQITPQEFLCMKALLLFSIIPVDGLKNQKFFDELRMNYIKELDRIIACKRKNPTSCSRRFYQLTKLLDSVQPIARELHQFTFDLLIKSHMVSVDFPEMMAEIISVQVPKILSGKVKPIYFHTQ
Description: Relative stimulatory activity compared to 5-alpha-DHT in CV-1 cells expressing androgen receptor

[3] = system: Rattus norvegicus; test: Distribution of tissue Radioactivity following Intravenous injection into castrated male rat prostate/blood; format: ADME, organism-based; settings: other tissue

SMILES	Biodistribution [1] [%]	RSA [2]	Biodistribution [3] [%]
CC12CC[C@H]3[C@@H]([C@H](I)CC4CC(=O)CCC43C)[C@@H]1CCC2O (stereo partly specified)	0.94	20	1.34
CC12CC[C@@H]3C4CCC(=O)CC4C[C@@H](F)[C@H]3[C@@H]1CC[C@]2(C)O (stereo partly specified)	–	16	–
C[C@]12CC[C@@H]3C4CCC(=O)CC4C[C@@H](F)[C@H]3[C@@H]1CC[C@@H]2O (stereo partly specified)	–	44	–
CC12CC[C@@H]3C4CCC(=O)CC4C[C@@H](I)[C@H]3[C@@H]1CC[C@]2(C)O (stereo partly specified)	–	8	–
